Data as given in ChEMBL document CHEMBL4049438, “Discovery and Optimization of Isoquinoline Ethyl Ureas as Antibacterial Agents” (J Med Chem, 2017).
≈ marks a conversion by molar mass, not a printed value.

Key:
[1] = Half life in rat blood at 1 uM by LC-MS/MS analysis; assay type: ADME, tissue-based
[2] = Stability of the compound at room temperature for weeks; assay type: physicochemical
[3] = Half life in mouse blood at 1 uM by LC-MS/MS analysis; assay type: ADME, tissue-based
Staphylococcus aureus [4] = assay: Antibacterial activity against methicillin-sensitive Staphylococcus aureus A-1178 infected in neutropenic mouse assessed as change in bacterial burden in thighs at 38.4 mg/kg, iv administered every 2.75 hrs for 2 times measured 6.5 hrs post infection; assay type: functional
Rattus norvegicus [5] = assay: Oral bioavailability in Wistar rat assessed as [3-(3-Ethyl-ureido)-5-(2-methyl-pyridin-4-yl)-isoquinolin-8-ylmethyl]-carbamic Acid Methyl Ester at […] administered as suspension up to 24 hrs by LC-MS/MS analysis; assay type: ADME, organism-based; details: in vivo
Rattus norvegicus [6] = assay: Tmax in Wistar rat assessed as [3-(3-Ethyl-ureido)-5-(2-methyl-pyridin-4-yl)-isoquinolin-8-ylmethyl]-carbamic Acid Methyl Ester at […], po administered as suspension up to 24 hrs by LC-MS/MS analysis; assay type: ADME, organism-based; details: in vivo
Rattus norvegicus [7] = assay: Half life in Wistar rat assessed as [3-(3-Ethyl-ureido)-5-(2-methyl-pyridin-4-yl)-isoquinolin-8-ylmethyl]-carbamic Acid Methyl Ester at 0.64 mg/kg, iv administered as solution up to 24 hrs by LC-MS/MS analysis; assay type: ADME, organism-based; details: in vivo
[8] = Half life in human blood at 1 uM by LC-MS/MS analysis; assay type: ADME, tissue-based
Rattus norvegicus [9] = assay: AUC in Wistar rat assessed as [3-(3-Ethyl-ureido)-5-(2-methyl-pyridin-4-yl)-isoquinolin-8-ylmethyl]-carbamic Acid Methyl Ester at […], po administered as suspension up to 24 hrs by LC-MS/MS analysis; assay type: ADME, organism-based; details: in vivo
[10] = AUC in Wistar rat at 0.64 mg/kg, iv administered as solution up to 24 hrs by LC-MS/MS analysis; assay type: ADME, organism-based; design: time < 24 hr, dose 0.64 mg/kg, route intravenous; details: in vivo
[11] = Volume of distribution in steady state in Wistar rat at 0.64 mg/kg, iv administered as solution up to 24 hrs by LC-MS/MS analysis; assay type: ADME, organism-based; details: in vivo, read-out: Vdss
[12] = Clearance in Wistar rat at 0.64 mg/kg, iv administered as solution up to 24 hrs by LC-MS/MS analysis; assay type: ADME, organism-based; details: in vivo
Rattus norvegicus [13] = assay: AUC in Wistar rat assessed as [3-(3-Ethyl-ureido)-5-(2-methyl-pyridin-4-yl)-isoquinolin-8-ylmethyl]-carbamic Acid Methyl Ester at 0.64 mg/kg, iv administered as solution up to 24 hrs by LC-MS/MS analysis; assay type: ADME, organism-based; design: time < 24 hr, dose 0.64 mg/kg, route intravenous; details: in vivo
Rattus norvegicus [14] = assay: Volume of distribution in steady state in Wistar rat assessed as [3-(3-Ethyl-ureido)-5-(2-methyl-pyridin-4-yl)-isoquinolin-8-ylmethyl]-carbamic Acid Methyl Ester at 0.64 mg/kg, iv administered as solution up to 24 hrs by LC-MS/MS analysis; assay type: ADME, organism-based; details: in vivo
Rattus norvegicus [15] = assay: AUC in Wistar rat at […], po administered as suspension up to 24 hrs by LC-MS/MS analysis; assay type: ADME, organism-based; details: in vivo, BLD = below limit of detection
Rattus norvegicus [16] = assay: Cmax in Wistar rat assessed as [3-(3-Ethyl-ureido)-5-(2-methyl-pyridin-4-yl)-isoquinolin-8-ylmethyl]-carbamic Acid Methyl Ester at […], po administered as suspension up to 24 hrs by LC-MS/MS analysis; assay type: ADME, organism-based; details: in vivo
Staphylococcus aureus [17] = assay: Antibacterial activity against methicillin-sensitive Staphylococcus aureus A-1178 infected in neutropenic mouse assessed as change in bacterial burden in thighs at […], iv administered every 2.75 hrs for 2 times measured 6.5 hrs post infection; assay type: functional
[18] = Solubility of compound in water at pH 6.3; assay type: physicochemical
[19] = Half life in Wistar rat at 0.64 mg/kg, iv administered as solution up to 24 hrs by LC-MS/MS analysis; assay type: ADME, organism-based; details: in vivo

half-life at 1 µM [1]: 60 min
Stability [2]: Stable
half-life at 1 µM [3]: 96 min
F (Rattus norvegicus [5]): 30%
Tmax (Rattus norvegicus [6]): 30 min
t1/2 (Rattus norvegicus [7]): 48 min
half-life at 1 µM [8]: 18 min
AUC (Rattus norvegicus [9]): 310 ng·h/mL
AUC at 24 h [10]: 79 ng·h/mL
Vd [11]: 0.5 L/kg
clearance [12]: 130 mL/min/kg
AUC (Rattus norvegicus [13]): 301 ng·h/mL
Vdss (Rattus norvegicus [14]): 1.1 L/kg
AUC (Rattus norvegicus [15]): Bld
Cmax (Rattus norvegicus [16]): 250 ng/mL
solubility [18]: 12.7 mg/mL (≈ 25.2 mM)
half-life [19]: 12 min
SMILES: CCNC(=O)Nc1cc2c(-c3cc[n+](COP(=O)([O-])O)c(C)c3)ccc(CNC(=O)OC)c2cn1
Activity (Staphylococcus aureus [4]): < -4.8 deltalog10CFU
Activity (Staphylococcus aureus [17]): -3.6 deltalog10CFU
